Test results from publication PMC9833666, “Designing and identifying β-hairpin peptide macrocycles with antibiotic potential” (Science Advances, 2023).
Bridge positions count the residues as written; N and C are the ends. Peptide text beside a SMILES is read from it.

Tested on: Escherichia coli W3110
Type: cell-based
Conditions: for Ec W3110 MIC MH: E. coli W3110, MH medium; for Ec W3110 MIC RPMI: E. coli W3110, RPMI medium

Row | SMILES | W3110 MIC | Ec W3110 MIC MH | Ec W3110 MIC RPMI | W3110 MIC MH | W3110 MIC RPMI
1 | CC[C@H](C)[C@@H]1NC(=O)[C@H](CCCNC(=N)N)NC(=O)[C@H](C(C)C)NC(=O)[C@H](CCCNC(=N)N)NC(=O)[C@@H](N)CSSC[C@@H](C(=O)O)NC(=O)[C@H](CCC(N)=O)NC(=O)[C@H](C(C)C)NC(=O)[C@H](CCC(N)=O)NC(=O)[C@H](CC(C)C)NC(=O)[C@H](CCCNC(=N)N)NC(=O)[C@H](C(C)C)NC(=O)[C@H]([C@@H](C)O)NC(=O)CNC(=O)[C@H](CO)NC(=O)CNC(=O)[C@H](CC(=O)O)NC(=O)[C@H](CC(N)=O)NC(=O)[C@H](C(C)C)NC(=O)[C@H](CC(N)=O)NC1=O [SyRC-10] (H-CRVRINVNDGSGTVRLQVQC-OH; disulfide 1-20) | >256 µg/mL |  |  |  | 
2 | CC[C@H](C)[C@@H]1NC(=O)[C@H](CCCCN)NC(=O)[C@H](CC(C)C)NC(=O)CNC(=O)CNC(=O)[C@H](CCCNC(=N)N)NC(=O)[C@H](CCCNC(=N)N)NC(=O)[C@H](CC(=O)O)NC(=O)[C@H](CC(=O)O)NC(=O)[C@H](C(C)C)NC(=O)[C@H](CCCNC(=N)N)NC(=O)[C@H](C(C)C)NC(=O)[C@H](CCCNC(=N)N)NC(=O)[C@H](C(C)C)NC(=O)[C@@H](N)CSSC[C@@H](C(=O)O)NC(=O)[C@H](C(C)C)NC(=O)[C@H](CCC(N)=O)NC(=O)[C@H](CC(C)C)NC(=O)[C@H](CO)NC1=O [SyRA-12] (H-CVRVRVDDRRGGLKISLQVC-OH; disulfide 1-20) | >256 µg/mL |  |  |  | 
3 | CC(C)C[C@@H]1NC(=O)[C@H](CCCNC(=N)N)NC(=O)[C@H](CCCNC(=N)N)NC(=O)[C@H](CCCNC(=N)N)NC(=O)CNC(=O)[C@H](CC(N)=O)NC(=O)[C@H](CC(N)=O)NC(=O)[C@H](C(C)C)NC(=O)[C@H](CCCNC(=N)N)NC(=O)[C@H](C(C)C)NC(=O)[C@H](CCCNC(=N)N)NC(=O)[C@H](C(C)C)NC(=O)[C@@H](N)CSSC[C@@H](C(=O)O)NC(=O)[C@H](C(C)C)NC(=O)[C@H](CCC(N)=O)NC(=O)[C@H](CC(C)C)NC(=O)[C@H](CO)NC(=O)[C@H](C(C)C)NC(=O)[C@H](CCCCN)NC1=O [SySA-79] (H-CVRVRVNNGRRRLKVSLQVC-OH; disulfide 1-20; N-terminus and C-terminus assumed) |  | 64 µg/mL | 32 µg/mL | 64 µg/mL | 32 µg/mL
4 | CC[C@H](C)[C@@H]1NC(=O)[C@H](CCCNC(=N)N)NC(=O)[C@H](CC(C)C)NC(=O)CNC(=O)[C@H](CCCNC(=N)N)NC(=O)[C@H](CCCNC(=N)N)NC(=O)[C@H](CCCNC(=N)N)NC(=O)[C@H](CC(N)=O)NC(=O)[C@H](CC(N)=O)NC(=O)[C@H](CC(C)C)NC(=O)[C@H](CCCNC(=N)N)NC(=O)[C@H](C(C)C)NC(=O)[C@H](CCCNC(=N)N)NC(=O)[C@H](CC(C)C)NC(=O)[C@@H](N)CSSC[C@@H](C(=O)O)NC(=O)[C@H](C(C)C)NC(=O)[C@H](CCC(N)=O)NC(=O)[C@H](CC(C)C)NC(=O)[C@H](CO)NC1=O [SySA-73] (H-CLRVRLNNRRRGLRISLQVC-OH; disulfide 1-20; N-terminus and C-terminus assumed) |  | 32 µg/mL | 8 µg/mL | 32 µg/mL | 8 µg/mL
5 | CC[C@H](C)[C@@H]1NC(=O)[C@H](CCCCN)NC(=O)[C@H](CC(C)C)NC(=O)[C@H](CCCNC(=N)N)NC(=O)CNC(=O)CNC(=O)[C@H](CCCNC(=N)N)NC(=O)[C@H](CC(N)=O)NC(=O)[C@H](CC(N)=O)NC(=O)[C@H](C(C)C)NC(=O)[C@H](CCCNC(=N)N)NC(=O)[C@H](C(C)C)NC(=O)[C@H]([C@@H](C)O)NC(=O)[C@H](C(C)C)NC(=O)[C@@H](N)CSSC[C@@H](C(=O)O)NC(=O)[C@H](C(C)C)NC(=O)[C@H](CCC(N)=O)NC(=O)[C@H](CC(C)C)NC(=O)[C@H]([C@@H](C)O)NC1=O [SyRA-14] (H-CVTVRVNNRGGRLKITLQVC-OH; disulfide 1-20) | >256 µg/mL |  |  |  | 
6 | CC[C@H](C)[C@@H]1NC(=O)[C@H](CCCCN)NC(=O)[C@H](CC(C)C)NC(=O)[C@H](CCCNC(=N)N)NC(=O)[C@H](CCCNC(=N)N)NC(=O)[C@H](CCCNC(=N)N)NC(=O)[C@H](CCCNC(=N)N)NC(=O)[C@H](CC(N)=O)NC(=O)[C@H](CC(N)=O)NC(=O)[C@H](CC(C)C)NC(=O)[C@H](CCCNC(=N)N)NC(=O)[C@H](C(C)C)NC(=O)[C@H](CCCNC(=N)N)NC(=O)[C@H](C(C)C)NC(=O)[C@@H](N)CSSC[C@@H](C(=O)O)NC(=O)[C@H](C(C)C)NC(=O)[C@H](CCC(=O)O)NC(=O)[C@H](CC(C)C)NC(=O)[C@H](CO)NC1=O [SySA-78] (H-CVRVRLNNRRRRLKISLEVC-OH; disulfide 1-20; N-terminus and C-terminus assumed) |  | 32 µg/mL | 16 µg/mL | 32 µg/mL | 16 µg/mL

Further lines, results first:

Row | W3110 MIC | Ec W3110 MIC MH | Ec W3110 MIC RPMI | W3110 MIC MH | W3110 MIC RPMI | SMILES
7 | >256 µg/mL |  |  |  |  | CC[C@H](C)[C@@H]1NC(=O)[C@H](CCCNC(=N)N)NC(=O)[C@H](CC(C)C)NC(=O)[C@@H](N)CSSC[C@@H](C(=O)O)NC(=O)[C@H](C(C)C)NC(=O)[C@H](CCC(N)=O)NC(=O)[C@H](C(C)C)NC(=O)[C@H]([C@@H](C)O)NC(=O)[C@H]([C@@H](C)CC)NC(=O)[C@H](CCCNC(=N)N)NC(=O)[C@H](C(C)C)NC(=O)CNC(=O)CNC(=O)[C@H](CCCNC(=N)N)NC(=O)[C@H](CCCNC(=N)N)NC(=O)[C@H](CC(N)=O)NC(=O)[C@H](CC(N)=O)NC(=O)[C@H](C(C)C)NC(=O)[C@H](CCCNC(=N)N)NC1=O [SyRA-2] (H-CLRIRVNNRRGGVRITVQVC-OH; disulfide 1-20)
8 |  | 256 µg/mL | 64 µg/mL | 256 µg/mL | 64 µg/mL | CC[C@H](C)[C@@H]1NC(=O)[C@H](CCCNC(=N)N)NC(=O)[C@H](C(C)C)NC(=O)[C@H](CCCNC(=N)N)NC(=O)[C@H](CO)NC(=O)[C@H](CCCNC(=N)N)NC(=O)[C@H](CCCNC(=N)N)NC(=O)[C@H](CC(N)=O)NC(=O)[C@H](CC(N)=O)NC(=O)[C@H](C(C)C)NC(=O)[C@H](CCCNC(=N)N)NC(=O)[C@H]([C@@H](C)CC)NC(=O)[C@H]([C@@H](C)O)NC(=O)[C@H](C(C)C)NC(=O)[C@@H](N)CSSC[C@@H](C(=O)O)NC(=O)[C@H](C(C)C)NC(=O)[C@H](CCC(N)=O)NC(=O)[C@H](CC(C)C)NC(=O)[C@H](CO)NC1=O [SySA-63] (H-CVTIRVNNRRSRVRISLQVC-OH; disulfide 1-20; N-terminus and C-terminus assumed)
9 |  | 64 µg/mL | 32 µg/mL | 64 µg/mL | 32 µg/mL | CC(C)C[C@@H]1NC(=O)[C@H](CCCNC(=N)N)NC(=O)[C@H](C(C)C)NC(=O)[C@H]([C@@H](C)O)NC(=O)[C@H](CC(C)C)NC(=O)[C@@H](N)CSSC[C@@H](C(=O)O)NC(=O)[C@H](C(C)C)NC(=O)[C@H](CCC(N)=O)NC(=O)[C@H](C(C)C)NC(=O)[C@H](CO)NC(=O)[C@H](C(C)C)NC(=O)[C@H](CCCCN)NC(=O)[C@H](C(C)C)NC(=O)CNC(=O)[C@H](CCCNC(=N)N)NC(=O)[C@H](CCCNC(=N)N)NC(=O)[C@H](CCCNC(=N)N)NC(=O)[C@H](CC(N)=O)NC(=O)[C@H](CC(N)=O)NC1=O [SySA-81] (H-CLTVRLNNRRRGVKVSVQVC-OH; disulfide 1-20; N-terminus and C-terminus assumed)
